Read-outs that look alike come from different tables or passages of the source.
What was measured:
Type in all cases: physicochemical
[1] = DVS water sorption isotherm, 25° C. scanned over 0 to 95% relative humidity (hygroscopicity)
From the text: In various embodiments, the hygroscopicity of crystal forms of racemic amisulpride, enantiomeric amisulpride, and enantiomeric amisulpride solvates are characterized by dynamic vapor sorption (DVS). DVS is a gravimetric technique that measures how much of a solvent is absorbed by a sample by varying the vapor concentration surrounding the sample (e.g., relative humidity) and measuring the change in mass. In the present application, DVS is used to generate water sorption isotherms, which represent the equilibrium amount of vapor sorbed as a function of steady state relative vapor pressure at a constant temperature.

[2] = Solid form stability on storage at 25° C. and 60% relative humidity; conditions: after 4 months at 25° C. and 60% relative humidity (RH)
[3] = Solubility (mg/mL) in water, buffers, simulated fluids and organic solvents (Table 1)
[4] = DVS, 25° C., 0 to 95% relative humidity

CCN1CCC[C@@H]1CNC(=O)c1cc(S(=O)(=O)CC)c(N)cc1OC [(R)-amisulpride Form A, R-4-Amino-N-[(1-ethyl-2-pyrrolidinyl)methyl]-5-(ethylsulfonyl)-2-methoxybenzamide]
hygroscopicity [1, 4]: substantially non-hygroscopic (less than a 1% maximum mass change in water sorption isotherms, at 25 °C scanned over 0 to 95% relative humidity) | maximum mass change in water sorption isotherms [1, 4]: 0.183% | average maximum mass change ([1]; DVS, average over the samples of Tables 6A-6C (Form A′) or 6D-6E (Form A)): about 0.17% | Change Mass ([1]; FIG. 2D, RH 1.28 %, elapse time 173.0 min): 0.000 wt % | Change Mass ([1]; FIG. 2D, RH 5.03 %, elapse time 515.4 min): 0.004 wt % | Change Mass ([1]; FIG. 2D, RH 5.05 %, elapse time 854.6 min): 0.008 wt % | Change Mass ([1]; FIG. 2D, RH 5.19 %, elapse time 181.6 min): 0.004 wt % | Change Mass ([1]; FIG. 2D, RH 9.87 %, elapse time 523.4 min): 0.008 wt % | Change Mass ([1]; FIG. 2D, RH 10.07 %, elapse time 189.1 min): 0.010 wt % | Change Mass ([1]; FIG. 2D, RH 10.08 %, elapse time 507.4 min): 0.010 wt % | Change Mass ([1]; FIG. 2D, RH 10.10 %, elapse time 846.6 min): 0.014 wt % | Change Mass ([1]; FIG. 2D, RH 14.89 %, elapse time 531.4 min): 0.014 wt % | Change Mass ([1]; FIG. 2D, RH 14.91 %, elapse time 196.6 min): 0.017 wt % | Change Mass ([1]; FIG. 2D, RH 15.10 %, elapse time 499.4 min): 0.017 wt % | Change Mass ([1]; FIG. 2D, RH 15.15 %, elapse time 838.6 min): 0.021 wt % | Change Mass ([1]; FIG. 2D, RH 19.83 %, elapse time 204.6 min): 0.024 wt % | Change Mass ([1]; FIG. 2D, RH 19.90 %, elapse time 539.4 min): 0.020 wt % | Change Mass ([1]; FIG. 2D, RH 20.10 %, elapse time 491.4 min): 0.023 wt % | Change Mass ([1]; FIG. 2D, RH 20.13 %, elapse time 830.5 min): 0.028 wt % | Change Mass ([1]; FIG. 2D, RH 24.87 %, elapse time 548.4 min): 0.027 wt % | Change Mass ([1]; FIG. 2D, RH 24.89 %, elapse time 483.4 min): 0.029 wt % | Change Mass ([1]; FIG. 2D, RH 24.93 %, elapse time 822.5 min): 0.033 wt % | Change Mass ([1]; FIG. 2D, RH 24.98 %, elapse time 213.7 min): 0.031 wt % | Change Mass ([1]; FIG. 2D, RH 29.88 %, elapse time 222.7 min): 0.039 wt % | Change Mass ([1]; FIG. 2D, RH 29.89 %, elapse time 557.4 min): 0.034 wt % | Change Mass ([1]; FIG. 2D, RH 30.13 %, elapse time 475.9 min): 0.036 wt % | Change Mass ([1]; FIG. 2D, RH 30.15 %, elapse time 815.0 min): 0.040 wt % | Change Mass ([1]; FIG. 2D, RH 34.83 %, elapse time 566.4 min): 0.042 wt % | Change Mass ([1]; FIG. 2D, RH 34.93 %, elapse time 467.4 min): 0.043 wt % | Change Mass ([1]; FIG. 2D, RH 34.94 %, elapse time 806.5 min): 0.046 wt % | Change Mass ([1]; FIG. 2D, RH 34.97 %, elapse time 231.7 min): 0.046 wt % | Change Mass ([1]; FIG. 2D, RH 39.80 %, elapse time 240.7 min): 0.054 wt % | Change Mass ([1]; FIG. 2D, RH 39.88 %, elapse time 457.4 min): 0.050 wt % | Change Mass ([1]; FIG. 2D, RH 39.95 %, elapse time 796.5 min): 0.053 wt % | Change Mass ([1]; FIG. 2D, RH 39.99 %, elapse time 577.4 min): 0.049 wt % | Change Mass ([1]; FIG. 2D, RH 44.82 %, elapse time 249.7 min): 0.061 wt % | Change Mass ([1]; FIG. 2D, RH 44.93 %, elapse time 586.4 min): 0.056 wt % | Change Mass ([1]; FIG. 2D, RH 45.05 %, elapse time 786.5 min): 0.060 wt % | Change Mass ([1]; FIG. 2D, RH 45.17 %, elapse time 447.9 min): 0.058 wt % | Change Mass ([1]; FIG. 2D, RH 49.96 %, elapse time 597.5 min): 0.063 wt % | Change Mass ([1]; FIG. 2D, RH 49.98 %, elapse time 258.7 min): 0.068 wt % | Change Mass ([1]; FIG. 2D, RH 50.04 %, elapse time 775.5 min): 0.067 wt % | Change Mass ([1]; FIG. 2D, RH 50.07 %, elapse time 438.8 min): 0.065 wt % | Change Mass ([1]; FIG. 2D, RH 54.98 %, elapse time 606.5 min): 0.070 wt % | Change Mass ([1]; FIG. 2D, RH 55.01 %, elapse time 269.7 min): 0.076 wt % | Change Mass ([1]; FIG. 2D, RH 55.07 %, elapse time 427.8 min): 0.073 wt % | Change Mass ([1]; FIG. 2D, RH 55.14 %, elapse time 764.5 min): 0.074 wt % | Change Mass ([1]; FIG. 2D, RH 59.95 %, elapse time 278.7 min): 0.084 wt % | Change Mass ([1]; FIG. 2D, RH 59.95 %, elapse time 617.5 min): 0.078 wt % | Change Mass ([1]; FIG. 2D, RH 60.08 %, elapse time 416.8 min): 0.081 wt % | Change Mass ([1]; FIG. 2D, RH 60.16 %, elapse time 753.5 min): 0.082 wt % | Change Mass ([1]; FIG. 2D, RH 64.91 %, elapse time 628.5 min): 0.086 wt % | Change Mass ([1]; FIG. 2D, RH 64.92 %, elapse time 289.7 min): 0.091 wt % | Change Mass ([1]; FIG. 2D, RH 65.11 %, elapse time 742.5 min): 0.090 wt % | Change Mass ([1]; FIG. 2D, RH 65.16 %, elapse time 405.8 min): 0.090 wt % | Change Mass ([1]; FIG. 2D, RH 69.88 %, elapse time 300.7 min): 0.099 wt % | Change Mass ([1]; FIG. 2D, RH 69.98 %, elapse time 639.5 min): 0.094 wt % | Change Mass ([1]; FIG. 2D, RH 70.09 %, elapse time 394.8 min): 0.099 wt % | Change Mass ([1]; FIG. 2D, RH 70.18 %, elapse time 731.5 min): 0.098 wt % | Change Mass ([1]; FIG. 2D, RH 74.63 %, elapse time 648.5 min): 0.103 wt % | Change Mass ([1]; FIG. 2D, RH 74.64 %, elapse time 309.7 min): 0.108 wt % | Change Mass ([1]; FIG. 2D, RH 75.39 %, elapse time 383.8 min): 0.109 wt % | Change Mass ([1]; FIG. 2D, RH 75.48 %, elapse time 720.5 min): 0.109 wt % | Change Mass ([1]; FIG. 2D, RH 79.56 %, elapse time 318.7 min): 0.119 wt % | Change Mass ([1]; FIG. 2D, RH 79.66 %, elapse time 657.5 min): 0.113 wt % | Change Mass ([1]; FIG. 2D, RH 80.45 %, elapse time 374.8 min): 0.124 wt % | Change Mass ([1]; FIG. 2D, RH 80.45 %, elapse time 711.5 min): 0.123 wt % | Change Mass ([1]; FIG. 2D, RH 84.45 %, elapse time 666.5 min): 0.128 wt % | Change Mass ([1]; FIG. 2D, RH 84.52 %, elapse time 327.8 min): 0.134 wt % | Change Mass ([1]; FIG. 2D, RH 85.43 %, elapse time 702.5 min): 0.152 wt % | Change Mass ([1]; FIG. 2D, RH 85.47 %, elapse time 365.8 min): 0.155 wt % | Change Mass ([1]; FIG. 2D, RH 89.51 %, elapse time 336.8 min): 0.152 wt % | Change Mass ([1]; FIG. 2D, RH 89.63 %, elapse time 675.5 min): 0.147 wt % | Change Mass ([1]; FIG. 2D, RH 90.09 %, elapse time 356.8 min): 0.168 wt % | Change Mass ([1]; FIG. 2D, RH 90.20 %, elapse time 693.5 min): 0.164 wt % | Change Mass ([1]; FIG. 2D, RH 94.80 %, elapse time 347.8 min): 0.183 wt % | Change Mass ([1]; FIG. 2D, RH 94.89 %, elapse time 684.5 min): 0.175 wt % | Change Mass ([1]; FIG. 2E, RH 19.69 %, elapse time 383.8 min): 0.012 wt % | Change Mass ([1]; FIG. 2E, RH 24.95 %, elapse time 392.9 min): 0.018 wt % | Change Mass ([1]; FIG. 2E, RH 29.81 %, elapse time 401.9 min): 0.024 wt % | Change Mass ([1]; FIG. 2E, RH 34.97 %, elapse time 412.9 min): 0.032 wt % | Change Mass ([1]; FIG. 2E, RH 39.81 %, elapse time 421.9 min): 0.038 wt % | Change Mass ([1]; FIG. 2E, RH 44.97 %, elapse time 432.9 min): 0.044 wt % | Change Mass ([1]; FIG. 2E, RH 45.03 %, elapse time 627.0 min): 0.046 wt % | Change Mass ([1]; FIG. 2E, RH 49.81 %, elapse time 441.9 min): 0.051 wt % | Change Mass ([1]; FIG. 2E, RH 50.10 %, elapse time 618.0 min): 0.052 wt % | Change Mass ([1]; FIG. 2E, RH 54.81 %, elapse time 450.9 min): 0.059 wt % | Change Mass ([1]; FIG. 2E, RH 55.04 %, elapse time 609.0 min): 0.059 wt % | Change Mass ([1]; FIG. 2E, RH 59.91 %, elapse time 461.9 min): 0.066 wt % | Change Mass ([1]; FIG. 2E, RH 60.10 %, elapse time 598.0 min): 0.067 wt % | Change Mass ([1]; FIG. 2E, RH 64.88 %, elapse time 472.9 min): 0.074 wt % | Change Mass ([1]; FIG. 2E, RH 65.19 %, elapse time 586.9 min): 0.075 wt % | Change Mass ([1]; FIG. 2E, RH 69.81 %, elapse time 483.9 min): 0.082 wt % | Change Mass ([1]; FIG. 2E, RH 70.16 %, elapse time 575.9 min): 0.083 wt % | Change Mass ([1]; FIG. 2E, RH 74.59 %, elapse time 492.9 min): 0.090 wt % | Change Mass ([1]; FIG. 2E, RH 75.44 %, elapse time 564.9 min): 0.092 wt % | Change Mass ([1]; FIG. 2E, RH 79.63 %, elapse time 501.9 min): 0.100 wt % | Change Mass ([1]; FIG. 2E, RH 80.52 %, elapse time 555.9 min): 0.105 wt % | Change Mass ([1]; FIG. 2E, RH 84.55 %, elapse time 510.9 min): 0.112 wt % | Change Mass ([1]; FIG. 2E, RH 85.39 %, elapse time 546.9 min): 0.126 wt % | Change Mass ([1]; FIG. 2E, RH 89.85 %, elapse time 519.9 min): 0.127 wt % | Change Mass ([1]; FIG. 2E, RH 90.10 %, elapse time 537.9 min): 0.137 wt % | Change Mass ([1]; FIG. 2E, RH 94.52 %, elapse time 528.9 min): 0.149 wt % | thermodynamic stability of crystal form (conversion to other polymorphs or amorphous form) [2]: not substantially converting to other polymorphs or amorphous form | solubility ([3]; aqueous buffer, 0.05M Acetate Buffer, solution pH 4.5, read-out: Solubility (mg/mL): 0.05M Acetate Buffer): > 100 mg/mL | solubility ([3]; pH 1.1, Simulated Gastric Fluid (no enzyme), pH adjusted to 1.1 (Form A), 1.2 (Form A′), read-out: Solubility (mg/mL): Simulated Gastric Fluid (no enzyme)): > 100 mg/mL | solubility ([3]; pH 6.7, fassgf or other biorelevant, Simulated Intestinal Fluid (no enzyme), pH adjusted to 6.7 (Form A), 6.9 (Form A′), read-out: Solubility (mg/mL): Simulated Intestinal Fluid (no enzyme)): > 100 mg/mL

From patent publication US10577317B2, “Crystal forms and production methods thereof” (Sunovion Pharmaceuticals Inc., priority 2017, dated 2020)
